Consider 2 compounds from US20220218838A1, “ADC FOR A TREATMENT CONCOMITANT WITH OR SUBSEQUENT TO DOCETAXEL” (PIERRE FABRE MEDICAMENT, priority 2019, published 2022).

In one test the test system is MCF-7 tumour. Briefly: In-vivo activity in a breast cancer model: nude mice grafted with MCF-7 cells, after onset of docetaxel resistance. The conditions noted are these: docetaxel 9 mg/kg intravenously, 5 injections, mice bearing MCF-7 tumours.
For a further test, the target named is IGF-IR (Homo sapiens, UniProt P08069). The conditions noted are these: read-out: Kd of binding to IGF-IR; cited from earlier work.
Chain of IGF-IR (P08069 31-736 limits assumed): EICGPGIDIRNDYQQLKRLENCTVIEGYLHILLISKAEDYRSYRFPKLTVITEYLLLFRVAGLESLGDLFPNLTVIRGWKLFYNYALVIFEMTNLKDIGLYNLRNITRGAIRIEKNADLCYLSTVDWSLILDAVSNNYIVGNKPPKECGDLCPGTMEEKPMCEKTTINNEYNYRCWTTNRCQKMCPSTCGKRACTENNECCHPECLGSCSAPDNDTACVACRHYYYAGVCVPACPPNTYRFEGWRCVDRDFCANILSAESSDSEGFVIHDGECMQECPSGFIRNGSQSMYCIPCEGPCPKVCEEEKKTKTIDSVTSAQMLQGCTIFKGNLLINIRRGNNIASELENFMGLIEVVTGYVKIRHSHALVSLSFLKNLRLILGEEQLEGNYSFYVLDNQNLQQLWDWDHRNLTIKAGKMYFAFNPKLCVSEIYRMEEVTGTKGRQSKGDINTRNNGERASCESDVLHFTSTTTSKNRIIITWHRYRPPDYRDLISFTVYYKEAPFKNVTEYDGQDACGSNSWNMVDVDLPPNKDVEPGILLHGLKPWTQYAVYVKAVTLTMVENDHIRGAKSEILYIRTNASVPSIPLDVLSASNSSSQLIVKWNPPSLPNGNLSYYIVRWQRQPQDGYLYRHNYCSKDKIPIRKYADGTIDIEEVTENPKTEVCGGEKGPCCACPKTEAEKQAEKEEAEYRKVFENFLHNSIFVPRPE
Chain of IGF-IR (P08069 741-1367 partner limits assumed): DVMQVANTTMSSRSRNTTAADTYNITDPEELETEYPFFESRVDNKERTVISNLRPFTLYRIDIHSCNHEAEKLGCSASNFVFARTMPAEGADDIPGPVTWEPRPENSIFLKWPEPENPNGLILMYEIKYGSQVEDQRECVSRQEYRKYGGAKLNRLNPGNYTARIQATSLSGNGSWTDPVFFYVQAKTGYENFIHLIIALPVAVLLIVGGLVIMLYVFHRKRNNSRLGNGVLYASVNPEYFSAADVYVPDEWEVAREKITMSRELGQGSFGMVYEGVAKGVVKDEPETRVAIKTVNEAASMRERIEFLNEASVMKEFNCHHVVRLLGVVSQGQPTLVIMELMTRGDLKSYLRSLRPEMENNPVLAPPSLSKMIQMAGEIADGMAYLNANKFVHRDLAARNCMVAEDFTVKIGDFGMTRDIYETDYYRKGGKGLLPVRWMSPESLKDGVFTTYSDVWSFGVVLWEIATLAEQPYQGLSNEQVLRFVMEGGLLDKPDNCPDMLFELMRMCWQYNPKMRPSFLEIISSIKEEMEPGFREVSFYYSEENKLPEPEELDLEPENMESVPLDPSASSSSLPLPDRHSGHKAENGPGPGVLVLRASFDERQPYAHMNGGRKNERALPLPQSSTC

Method for MCF-7 tumour: Determination of in-vivo activity: In-vivo activity is tested in a breast cancer model: 7-week old nude female mice (Charles River Laboratories, n=15) were subcutaneously grafted with 5×10^6 MCF-7 cells 1 day after subcutaneous implantation of 0.72 mg of granules releasing 17β-estradiol (Innovative Research of America) for 60 days.
The mice are randomised, and treatment is initiated when the tumours reach a size of approximately 150 mm^3. The tumour volume (length×width×height×0.52) is measured at least twice a week and the therapeutic response is defined using solid tumour response criteria (RECIST).
Mice bearing MCF-7 tumours are injected intravenously with docetaxel, 9 mg/kg twice a week for a total of 5 injections.
The percentage of the regression values is calculated using the following formula:
where T=the tumour volume in the treated group, ΔT=the tumour volume in the treated group on the day of the study minus the tumour volume in the treated group on the initial day of administration, and Tinitial=the tumour volume in the treated group on the initial day of the administration The disease is considered to be progressing when the tumour size increases by >20%. Partial regression (PR) is defined as a reduction in tumour size >30%. […]

`CC(=O)O[C@@]12CO[C@@H]1C[C@H](O)[C@@]1(C)C(=O)[C@H](O)C3=C(C)[C@@H](OC(=O)[C@H](O)[C@@H](NC(=O)OC(C)(C)C)c4ccccc4)C[C@@](O)([C@@H](OC(=O)c4ccccc4)[C@H]21)C3(C)C` [docetaxel]: the “time after which the tumours became resistant to docetaxel and relapsed” value with MCF-7 tumour is 70 days.

For the compound IGF2: natural ligand bound by IGF-IR, in the test with IGF-IR, the Kd was ~1 nM.

A word on the Kd: it is the free concentration of one partner at which half of the binding sites on the other are occupied at equilibrium, for simple one-to-one binding.
